Experimental findings from patent EP4725941A1, “ARYLAMIDE DERIVATIVE HAVING ANTITUMOR ACTIVITY” (priority 2020, dated 2021) are described below.

Read-outs that look alike come from different tables or passages of the source.

In series [1] the test system is A549. Description: Cell proliferation-inhibiting activity (ATP in viable cells, CellTiter-Glo), A549. To be noted: A549, 96 h, read-out: A549 IC50. It is filed as cell-based, human.
For series [2], the target named is T1, BRAF (Homo sapiens, UniProt P15056).
T1 construct: purchased Eurofins Genomics KK; (BRAF); Thermo Fisher Scientific Inc. (MEK1)
T1 sequence (P15056 417-766 limits assumed): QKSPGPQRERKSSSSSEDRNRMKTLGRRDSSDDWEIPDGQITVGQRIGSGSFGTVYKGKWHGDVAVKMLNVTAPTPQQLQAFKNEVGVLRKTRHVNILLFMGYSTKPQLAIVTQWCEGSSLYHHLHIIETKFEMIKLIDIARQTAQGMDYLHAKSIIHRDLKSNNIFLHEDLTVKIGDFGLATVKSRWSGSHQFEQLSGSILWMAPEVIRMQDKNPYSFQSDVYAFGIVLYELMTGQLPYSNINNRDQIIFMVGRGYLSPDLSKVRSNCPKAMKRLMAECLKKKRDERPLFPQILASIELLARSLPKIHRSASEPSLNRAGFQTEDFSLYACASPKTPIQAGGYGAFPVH
Description: BRAF-inhibiting activity, time-resolved fluorescence-fluorescence resonance energy transfer assay. In kind it is biochemical. How it is done:
The BRAF-inhibiting activity of the compounds listed in Table 3 below was evaluated by the time-resolved fluorescence-fluorescence resonance energy transfer assay as described below.

Series [3] addresses T2, MEK1 (Homo sapiens, UniProt Q02750).
T2 construct: purchased Thermo Fisher Scientific Inc. (MEK1, CRAF); Carna Biosciences, Inc. (ERK2)
Description: MEK1-inhibiting activity, fluorescent polarization method (CRAF/MEK1/ERK2 cascade, IMAP). It is filed as biochemical. How it is done: The MEK1-inhibiting activity of the compounds listed in Table 3 below were evaluated by the fluorescent polarization method as described below.

Series [4] has as its system Calu-6. Briefly: Cell proliferation-inhibiting activity (ATP in viable cells, CellTiter-Glo), Calu-6. To be noted: Calu-6, 96 h, read-out: Calu-6 IC50. It is filed as cell-based, human.
Series [5] is described as follows: Human liver microsome stability. It is filed as in vitro ADME. Particulars: human liver microsomes, pH 7.4. In general terms: Liver microsomes are a subcellular fraction often used to study metabolism.
Series [6] relates to NCI-H2122. Briefly: Cell proliferation-inhibiting activity (ATP in viable cells, CellTiter-Glo), NCI-H2122. In kind it is cell-based, human. To be noted: NCI-H2122, 96 h, read-out: NCI-H2122 IC50. (In general: Cellular ATP, detected with luciferase, serves as a proxy for viable cell number.)
The mark [7] stands for this setting: human lung cancer cells, 4 days.

T2 sequence (Q02750 whole entry): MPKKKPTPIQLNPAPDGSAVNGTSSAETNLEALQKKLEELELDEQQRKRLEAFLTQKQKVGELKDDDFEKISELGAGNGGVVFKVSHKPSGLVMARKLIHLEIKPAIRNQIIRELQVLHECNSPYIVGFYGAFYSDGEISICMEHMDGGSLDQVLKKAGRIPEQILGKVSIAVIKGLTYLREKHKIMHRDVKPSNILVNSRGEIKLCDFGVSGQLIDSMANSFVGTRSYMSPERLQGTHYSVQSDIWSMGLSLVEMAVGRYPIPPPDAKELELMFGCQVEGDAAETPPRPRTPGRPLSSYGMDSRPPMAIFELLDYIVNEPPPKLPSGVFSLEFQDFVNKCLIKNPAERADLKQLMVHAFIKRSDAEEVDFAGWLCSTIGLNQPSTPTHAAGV

A word on the IC50: it is the concentration that inhibits the measured activity by half. The term microsomal CLint denotes the rate of metabolic loss divided by the concentration. `NC(=O)c1cc(Cc2ccnc(NS(=O)(=O)NC3CC3)c2F)c(F)c(F)c1Nc1ccc(I)cc1Cl` [Compound B-11, 2-(2-Chloro-4-iodoanilino)-5-[[2-(cyclopropylsulfamoylamino)-3-fluor opyridin-4-yl]methyl]-3,4-difluorobenzamide]: the IC50 in series [1] (setting [7]) amounted to 18 nM; in series [2] (read-out: BRAF IC50; Table 3) it was 3 nM; in series [3] (Table 3, read-out: MEK1 IC50), 19 nM; in series [4] (setting [7]), 43 nM; in series [6] (setting [7]), 16 nM. The compound also yielded an intrinsic metabolic clearance (microsomal CLint) at 0.99 µM in series [5] of 26 µL/min/mg.

As to `CNS(=O)(=O)Nc1nccc(Cc2cc(C(=O)NOC(C)(C)C)c(Nc3ccc(I)cc3F)n(C)c2=O)c1F` [Compound J-10, 2-(2-fluoro-4-iodoanilino)-5-[[3-fluoro-2-(methylsulfamoylamino)pyridin-4-yl]methyl]-1-methyl-N-[(2-methylpropan-2-yl)oxy]-6-oxop yridine-3-carboxamide], the half-inhibitory concentration (IC50) in series [1] (setting [7]) worked out at 8 nM; in series [2] (read-out: BRAF IC50; Table 3), 10 nM; in series [3] (Table 3, read-out: MEK1 IC50), 42 nM; in series [4] (setting [7]), 13 nM; in series [6] (setting [7]), 2 nM. In series [5], this compound displayed an intrinsic metabolic clearance (microsomal CLint) at 0.99 µM of 28 µL/min/mg.

In the case of `Cn1c(Nc2ccc(C3CC3)cc2F)c(C(N)=O)cc(Cc2ccnc(NS(=O)(=O)NC3CC3)c2F)c1=O` [Compound J-4, 2-(4-Cyclopropyl-2-fluoroanilino)-5-[[2-(cyclopropylsulfamoylamino)-3-fluoropyridin-4-yl]methyl]-1-methyl-6-oxopyridine-3-carboxamide], the concentration for half-maximal inhibition (IC50) in series [1] (Homo sapiens) was more than 2000 nM; in series [2] (Table 3; read-out: BRAF IC50), 14 nM; in series [3] (Table 3, read-out: MEK1 IC50), 877 nM; in series [4] (Homo sapiens) it was more than 2000 nM; in series [6] (Homo sapiens), 1060 nM. In addition, the intrinsic metabolic clearance (microsomal CLint) at 0.99 µM in series [5] amounted to 67 µL/min/mg.

With `CNS(=O)(=O)Nc1nccc(Cc2cc(C(=O)NC3CC3C)c(Nc3ccc(I)cc3F)c(F)c2F)c1F` (mixture of isomers) [Compound B-3, 3,4-Difluoro-2-(2-fluoro-4-iodoanilino)-5-[[3-fluoro-2-(methylsulfamoylamino)pyridin-4-yl]methyl]-N-(2-methylcyclopropyl)benzamide (mixture of 4 isomers)], the half-maximal inhibitory concentration (IC50) in series [1] (setting [7]) was 2 nM; in series [2] (read-out: BRAF IC50; Table 3), 4 nM; in series [3] (Table 3, read-out: MEK1 IC50), 82 nM; in series [4] (setting [7]), 14 nM; in series [6] (setting [7]) it was 1 nM. Further, the microsomal CLint at 0.99 µM in series [5] worked out at 22 µL/min/mg.

`CNS(=O)(=O)Nc1nccc(Cc2cc(C(=O)NOC)c(Nc3ccc(I)cc3F)n(C)c2=O)c1F` [Compound J-8, 2-(2-fluoro-4-iodoanilino)-5-[[3-fluoro-2-(methylsulfamoylamino)pyridin-4-yl]methyl]-N-methoxy-1-methyl-6-oxopyridine-3-carboxamide]: the concentration for half-maximal inhibition (IC50) in series [1] (setting [7]) is 24 nM; in series [2] (read-out: BRAF IC50; Table 3), 2 nM; in series [3] (Table 3, read-out: MEK1 IC50) it was 15 nM; in series [4] (setting [7]) it was 77 nM; in series [6] (setting [7]), 5 nM. The same compound displayed a microsomal CLint at 0.99 µM in series [5] of 3 µL/min/mg.

As to `CNS(=O)(=O)Nc1nccc(Cc2cc(C(=O)NOC)c(Nc3ccc(C4CC4)cc3F)c(F)c2F)c1F` [Compound G-2, 2-(4-Cyclopropyl-2-fluoroanilino)-3,4-difluoro-5-[[3-fluoro-2-(methylsulfamoylamino)pyridin-4-yl]methyl]-N-methoxybenzamide], the half-maximal inhibitory concentration (IC50) in series [1] (setting [7]) stood at 2 nM; in series [2] (read-out: BRAF IC50; Table 3), 3 nM; in series [3] (Table 3, read-out: MEK1 IC50), 6 nM; in series [4] (setting [7]), 13 nM; in series [6] (setting [7]) it was 0.4 nM. In addition, the intrinsic metabolic clearance (microsomal CLint) at 0.99 µM in series [5] came out at 31 µL/min/mg.

In the case of `Cn1c(Nc2ccc(I)cc2F)c(C(N)=O)cc(Cc2cccc(NS(=O)(=O)NC3CC3)c2F)c1=O` [Compound K-3, 5-[[3-(Cyclopropylsulfamoylamino)-2-fluorophenyl]methyl]-2-(2-fluor o-4-iodoanilino)-1-methyl-6-oxopyridine-3-carboxamide], the 50% inhibitory concentration (IC50) in series [1] (setting [7]) turned out to be 9 nM; in series [2] (read-out: BRAF IC50; Table 3) it was 5 nM; in series [3] (Table 3, read-out: MEK1 IC50), 84 nM; in series [4] (setting [7]) it was 31 nM; in series [6] (setting [7]), 10 nM. For the same compound, the microsomal CLint at 0.99 µM in series [5] stood at 247 µL/min/mg.

For `CNS(=O)(=O)Nc1cccc(Oc2cc(F)cc(Nc3ccc(I)cc3F)c2C(N)=O)c1` [Ref-2, 4-Fluoro-2-(2-fluoro-4-iodoanilino)-6-[3-(methylsulfamoylamino)phenoxy]benzamide, reference compound], the IC50 in series [1] (setting [7]) was found to be 8 nM; in series [2] (read-out: BRAF IC50; Table 3), 12 nM; in series [3] (Table 3, read-out: MEK1 IC50) it was 364 nM; in series [4] (setting [7]), 35 nM; in series [6] (setting [7]) it was 3 nM. The intrinsic metabolic clearance (microsomal CLint) at 0.99 µM in series [5] worked out at 12 µL/min/mg.

For `NC(=O)c1cc(Cc2cccc(NS(=O)(=O)C3CC3)c2F)c(F)c(F)c1Nc1ccc(I)cc1F` [Compound E-22, 5-[[3-(Cyclopropylsulfonylamino)-2-fluorophenyl]methyl]-3,4-difluoro-2-(2-fluoro-4-iodoanilino)benzamide], the IC50 amounted to 6 nM in series [1] (setting [7]); 4 nM in series [2] (read-out: BRAF IC50; Table 3); 302 nM in series [3] (Table 3, read-out: MEK1 IC50); 87 nM in series [4] (setting [7]); 3 nM in series [6] (setting [7]). Moreover, the microsomal CLint at 0.99 µM in series [5] stood at 18 µL/min/mg.

For the compound `CNS(=O)(=O)Nc1nccc(Cc2cc(C(=O)NC3CC3(F)F)c(Nc3ccc(I)cc3F)c(F)c2F)c1F` (racemic) [Compound B-6, (+/-)-N-(2,2-Difluorocyclopropyl)-3,4-difluoro-2-(2-fluoro-4-iodoanilino)-5-[[3-fluoro-2-(methylsulfamoylamino)pyridin-4-yl]methyl]benzamide (racemate)], the IC50 in series [1] (setting [7]) is 2 nM; in series [2] (Table 3; read-out: BRAF IC50) it was 15 nM; in series [3] it was 97 nM; in series [4] (setting [7]) it was 16 nM; in series [6] (setting [7]), 1 nM. In addition, the microsomal CLint at 0.99 µM in series [5] turned out to be 20 µL/min/mg.

Consider `NC(=O)c1cc(Cc2ccnc(NS(N)(=O)=O)c2)c(F)c(F)c1Nc1ccc(I)cc1F` [Compound C-1, 3,4-Difluoro-2-(2-fluoro-4-iodoanilino)-5-[[2-(sulfamoylamino)pyridin-4-yl]methyl]benzamide], for which the IC50 in series [1] (setting [7]) is 7 nM; in series [2] (read-out: BRAF IC50; Table 3), 4 nM; in series [3] (Table 3, read-out: MEK1 IC50), 72 nM; in series [4] (setting [7]), 16 nM; in series [6] (setting [7]) it was 4 nM. In series [5], this compound returned a microsomal CLint at 0.99 µM of 10 µL/min/mg.

As to `CCCNS(=O)(=O)Nc1nccc(Cc2cc(C(N)=O)c(Nc3ccc(I)cc3F)c(F)c2F)c1F` [Compound A-41, 3,4-difluoro-2-(2-fluoro-4-iodoanilino)-5-[[3-fluoro-2-(propylsulfamoylamino)pyridin-4-yl]methyl]benzamide], the half-maximal inhibitory concentration (IC50) in series [1] (setting [7]) came to 12 nM; in series [2] (read-out: BRAF IC50; Table 3), 7 nM; in series [3] (Table 3, read-out: MEK1 IC50), 29 nM; in series [4] (setting [7]), 8 nM; in series [6] (setting [7]) it was 2 nM. Also, the microsomal CLint at 0.99 µM in series [5] was 5 µL/min/mg.

With `COCCNS(=O)(=O)Nc1nccc(Cc2cc(C(=O)NOC(C)(C)C)c(Nc3ccc(I)cc3F)c(F)c2F)c1F` [Compound A-9, 3,4-Difluoro-2-(2-fluoro-4-iodoanilino)-5-[[3-fluoro-2-(2-methoxyethylsulfamoylamino)pyridin-4-yl]methyl]-N-[(2-methylpropan-2-yl)oxy]be nzamide], the half-inhibitory concentration (IC50) is 2 nM in series [1] (setting [7]); 4 nM in series [2] (read-out: BRAF IC50; Table 3); 4 nM in series [3] (Table 3, read-out: MEK1 IC50); 7 nM in series [4] (setting [7]); 0.4 nM in series [6] (setting [7]). In series [5], this compound returned a microsomal CLint at 0.99 µM of 56 µL/min/mg.
